Experiment: HILIC, Waters ACQUITY UPLC BEH Amide, 100 × 2.1 mm, 1.7 µm; A: water + 0.125% formic acid + 10 mM ammonium formate; B: 5% water + 95% acetonitrile + 0.125% formic acid + 10 mM ammonium formate; gradient (min/%B) 0/100 2/100 7.7/70 9.5/40 10.25/30 12.75/100 17/100
Conditions: stereoisomer not certain

Row | LC retention time | SMILES
1 | 1.12 min | Clc1ccccc1CN1CCc2sccc2C1 [Ticlopidine]
2 | 9.58 min | NC(CCSSCCC(N)C(=O)O)C(=O)O (stereo unspecified) [Homocystine]
3 | 1.99 min | CC(COc1ccccc1Cc1ccccc1)N1CCCCC1 (stereo unspecified) [Benproperine]
4 | 3.7 min | CCC1(O)CC2CN(CCc3c([nH]c4ccccc34)C(C(=O)OC)(c3cc4c(cc3OC)N(C=O)C3C(O)(C(=O)OC)C(OC(C)=O)C5(CC)C=CCN6CCC43C65)C2)C1 (stereo unspecified) [Vincristine]
5 | 1.09 min | CC(=O)CCCCn1cnc2c1c(=O)n(C)c(=O)n2C [Lomifylline]
6 | 4.71 min | Nc1ncnc2nc[nH]c12 [Adenine]
7 | 1.3 min | O=C1CC(c2ccc(O)cc2)Oc2cc(O)ccc21 (stereo unspecified) [Liquiritigenin]
8 | 8.03 min | CC(=O)NCCCCC(N)C(=O)O (stereo unspecified) [N-epsilon-Acetyllysine]
9 | 2.23 min | CCC1C(=O)OCC1Cc1cncn1C (stereo unspecified) [Pilocarpine]
10 | 7.24 min | CC(C)C(N)C(=O)O (stereo unspecified) [Valine]
11 | 1.69 min | CCCCC(=O)N(Cc1ccc(-c2ccccc2-c2nn[nH]n2)cc1)C(C(=O)O)C(C)C (stereo unspecified) [Valsartan]
12 | 1.08 min | COc1ccc2c(c1)c(CC(=O)O)c(C)n2C(=O)c1ccc(Cl)cc1 [Indomethacin]
13 | 10.2 min | NC(CCC(=O)NC(CSSCC(N)C(=O)O)C(=O)NCC(=O)O)C(=O)O [L-Cysteine-glutathione disulfide]
14 | 1.16 min | O=Cc1c[nH]c2ccccc12 [Indole-3-carboxaldehyde]
15 | 0.95 min | CC(=O)SCC(Cc1ccccc1)C(=O)NCC(=O)OCc1ccccc1 (stereo unspecified) [Racecadotril]
16 | 1.62 min | Cc1cn(C2C=CC(CO)O2)c(=O)[nH]c1=O (stereo unspecified) [Stavudine]
17 | 2.15 min | CN(C)CCOC(c1ccccc1)c1ccccc1 [Diphenhydramine]
18 | 1.04 min | CCCc1c(OCCCCc2nn[nH]n2)ccc(C(C)=O)c1O [Tomelukast]
19 | 8.81 min | NC(=O)CC(N)C(=O)O (stereo unspecified) [Asparagine]
20 | 2.54 min | CN(C)CCC(c1ccc(Cl)cc1)c1ccccn1 (stereo unspecified) [Chlorpheniramine]
21 | 0.94 min | CCOC(=O)C1=C(C)NC(C)=C(C(=O)OCC)C1c1ccccc1C=CC(=O)OC(C)(C)C [Lacidipine]

Row | LC retention time | SMILES
22 | 8.87 min | CC(=O)NCCCCNCCCN [N8-Acetylspermidine]
23 | 2.93 min | COCCCCC(=NOCCN)c1ccc(C(F)(F)F)cc1 [Fluvoxamine]
24 | 2.42 min | COC1C(CO)OC(n2ccc(=O)[nH]c2=O)C1O (stereo unspecified) [3'-O-Methyluridine]
25 | 5.64 min | C[Si](C)(C)CCC(=O)O [3-Trimethylsilylpropionic acid]
26 | 3.08 min | CN1CCN2c3ncccc3Cc3ccccc3C2C1 (stereo unspecified) [Mirtazapine]
27 | 1.36 min | NC(=O)Cc1c[nH]c2ccccc12 [Indole-3-acetamide]
28 | 2.31 min | O=C(CCCN1CCC(O)(c2ccc(Cl)cc2)CC1)c1ccc(F)cc1 [Haloperidol]
29 | 1.43 min | CC(=O)NCCc1c[nH]c2ccc(O)cc12 [N-Acetyl-5-hydroxytryptamine]
30 | 1.15 min | COc1cc(C=O)ccc1O [Vanillin]
31 | 5.87 min | Nc1ccn(C2CC(O)C(CO)O2)c(=O)n1 (stereo unspecified) [2'-Deoxycytidine]
32 | 1.51 min | O=c1ccc2ccccc2[nH]1 [2-Hydroxyquinoline]
33 | 5.6 min | NC(=O)NCCC(=O)O [3-Ureidopropionic acid]
34 | 4.88 min | OC1CCCCC1O (stereo unspecified) [1,2-Cyclohexanediol]
35 | 1.21 min | COc1ccnc(CS(=O)c2nc3ccc(OC(F)F)cc3[nH]2)c1OC (stereo unspecified) [Pantoprazole]
36 | 9.11 min | CC(N)C(=O)NC(CCC(N)=O)C(=O)O (stereo unspecified) [Ala-Gln]
37 | 4.93 min | CN1CC(=O)NC1=N [Creatinine]
38 | 5.66 min | O=C(O)c1ccc[nH]1 [Pyrrole-2-carboxylic acid]
39 | 0.99 min | CCCCCCCCCCCCCCCC(=O)OC(CO)CO [2-Palmitoylglycerol]
40 | 3.89 min | Nc1ccc(O)c(C(=O)O)c1
41 | 7.83 min | O=C(O)C1CCCN1 (stereo unspecified) [Proline]
42 | 2.05 min | O=c1cccc[nH]1 [2-Pyridone]

Row | LC retention time | SMILES
43 | 8.71 min | O=C1CCC(C(=O)O)N1 (stereo unspecified) [Pyroglutamic acid]
44 | 1.97 min | CCN(CC)CC(=O)Nc1c(C)cccc1C [Lidocaine]
45 | 1.07 min | C=CCC1C=C(C)CC(C)CC(OC)C2OC(O)(C(=O)C(=O)N3CCCCC3C(=O)OC(C(C)=CC3CCC(O)C(OC)C3)C(C)C(O)CC1=O)C(C)CC2OC (stereo unspecified) [Tacrolimus]
46 | 6.6 min | NCC1CCC(C(=O)O)CC1 (stereo unspecified) [4-Aminomethylcyclohexanecarboxylic acid]
47 | 1.99 min | COc1ccccc1N1CCN(CC(O)COc2cccc3ccccc23)CC1 (stereo unspecified) [Naftopidil]
48 | 1.69 min | O=c1cc[nH]c2ccccc12 [4-Hydroxyquinoline]
49 | 8.14 min | NC(CC(=O)O)C(=O)NC(Cc1ccccc1)C(=O)O (stereo unspecified) [Asp-Phe]
50 | 9.85 min | NC(COP(=O)(O)O)C(=O)O (stereo unspecified) [O-Phosphoserine]
51 | 1.18 min | O=Cc1ccc(O)cc1 [4-Hydroxybenzaldehyde]
52 | 5.28 min | CC(=O)NC(CS)C(=O)O (stereo unspecified) [N-Acetylcysteine]
53 | 4.62 min | Nc1[nH]c(=O)ncc1F [5-Flurocytosine]
54 | 3.92 min | Nc1ncnc2c1ncn2C1CC(O)C(CO)O1 (stereo unspecified) [2'-Deoxyadenosine]
55 | 7.83 min | CCC(C)C(NC(=O)C(C)N)C(=O)O (stereo unspecified) [Ala-Ile]
56 | 4.88 min | CCCC(=O)OCC [Ethylbutanoate]
57 | 1.39 min | O=c1c(-c2ccc(O)cc2)coc2cc(O)ccc12 [Daidzein]
58 | 4.58 min | O=C(O)c1ccnc2ccccc12 [4-Quinolinecarboxylic acid]
59 | 5.91 min | NC(=O)C(N)Cc1c[nH]c2ccccc12 (stereo unspecified) [Tryptophanamide]
60 | 3.54 min | Nc1ncnc2c1ncn2C1OC(CO)CC1O (stereo unspecified) [Cordycepin]
61 | 1.08 min | CCOC(=O)c1ncn2c1CN(C)C(=O)c1cc(F)ccc1-2 [Flumazenil]
62 | 2.76 min | CCN1CCCC1CNC(=O)c1cc(S(=O)(=O)CC)c(N)cc1OC (stereo unspecified) [Amisulpride]
63 | 2.12 min | CC1CCN(CCCC(=O)c2ccc(F)cc2)CC1 [Melperone]

Row | LC retention time | SMILES
64 | 0.97 min | CCC(C)n1ncn(-c2ccc(N3CCN(c4ccc(OCC5COC(Cn6cncn6)(c6ccc(Cl)cc6Cl)O5)cc4)CC3)cc2)c1=O (stereo unspecified) [Itraconzaole]
65 | 1.9 min | O=C(OC1CC2CC3CC(C1)N2CC3=O)c1c[nH]c2ccccc12 (stereo unspecified) [Dolasetron]
66 | 7.54 min | Nc1nc(=O)n(C2OC(CO)C(O)C2O)cc1CO (stereo unspecified) [5-Hydroxymethylcytidine]
67 | 8.56 min | NC(=O)NC(NC(N)=O)C(=O)O [Allantoic acid]
68 | 8.05 min | CC(N)C(=O)O (stereo unspecified) [Alanine]
69 | 9.9 min | NC(N)=NCCCC(N)C(=O)NC(CO)C(=O)O (stereo unspecified) [Arg-Ser]
70 | 1.1 min | CC1(C)OC2COC3(COS(N)(=O)=O)OC(C)(C)OC3C2O1 (stereo unspecified) [Topiramate]
71 | 1.29 min | CC(C)C(O)C(=O)O (stereo unspecified) [2-Hydroxy-3-methylbutyric acid]
72 | 7.61 min | NC(Cc1ccc(O)cc1)C(=O)O (stereo unspecified) [Tyrosine]
73 | 1.74 min | CC(O)C(N)=O (stereo unspecified) [Lactamide]
74 | 6.4 min | NCCc1ccc(O)c(O)c1 [Dopamine]
75 | 4.72 min | COc1cn(C2OC(CO)C(O)C2O)c(=O)[nH]c1=O (stereo unspecified) [5-Methoxyuridine]
76 | 1.84 min | OCC1OC(O)C(O)C(O)C1O (stereo unspecified) [Glucose]
77 | 2.3 min | CC(=O)N1CCCCCC1=O [N-Acetylcaprolactam]
78 | 2.94 min | CC(C)CC(=O)NCC(=O)O [N-Isovalerylglycine]
79 | 1.11 min | CCOC(=O)N1CCC(=C2c3ccc(Cl)cc3CCc3cccnc32)CC1 [Loratadine]
80 | 2.6 min | Cc1cn(C2OC(CO)CC2O)c(=O)[nH]c1=O (stereo unspecified) [5-Methyl-3-deoxyuridine]
81 | 5.1 min | NC1CCCCC1 [Cyclohexanamine]
82 | 1.15 min | CC(=O)NCC1CN(c2ccc(N3CCOCC3)c(F)c2)C(=O)O1 (stereo unspecified) [Linezolide]

Row | SMILES | LC retention time
83 | NC(=NCc1ccc(Cl)cc1)SCCCc1cnc[nH]1 [Clobenpropit] | 6.13 min
84 | CC12CC(=O)C3C(CCC4=CC(=O)CCC43C)C1CCC2=O (stereo unspecified) [Adrenosterone] | 1.1 min
85 | CCOC(=O)C1(c2ccccc2)CCN(CCC(C#N)(c2ccccc2)c2ccccc2)CC1 [Diphenoxylate] | 1.41 min
86 | COc1ccc2c(c1)C13CCCCC1C(C2)N(C)CC3 (stereo unspecified) [Dextromethorphan] | 2.64 min
87 | CS(=O)(=O)Nc1ccc(Cc2noc(-c3ccc4[nH]cc(CCN)c4c3)n2)cc1 [L-694,247] | 5.25 min
88 | CN1C(=O)C(O)N=C(c2ccccc2)c2cc(Cl)ccc21 (stereo unspecified) [Temazepam] | 1.15 min
89 | CCCCCCCCOC(=O)c1ccccc1C(=O)OCCCCCCCC [Dioctyl Phthalate] | 0.96 min
90 | CCC(=O)OC(Cc1ccccc1)(c1ccccc1)C(C)CN(C)C (stereo unspecified) [Propoxyphene] | 2.01 min
91 | COc1ccc2[nH]cc(CCN)c2c1 [5-Methoxytryptamine] | 4.99 min
92 | c1cncc(C2CCCN2)c1 (stereo unspecified) [Nornicotine] | 5.98 min
93 | Oc1ccc2c3c1OC1c4[nH]c5ccccc5c4CC4(O)C(C2)N(CC2CC2)CCC314 (stereo unspecified) [Naltrindole] | 4.45 min
94 | C=COC(N)=O [Vinyl Carbamate] | 1.34 min
95 | CS(=O)CCCCN=C=S (stereo unspecified) [Sulforaphane] | 1.14 min
96 | COc1c2occc2cc2ccc(=O)oc12 [Xanthotoxin] | 1.04 min

— the RepoRT retention time repository
